Test results published in paper PMC12145828 (The Journal of Biological Chemistry, 2025).
Values joined by “and” are separate entries in the source; they are usually repeats but may differ in a detail not shown here. Identical values can stand only once. Like-named read-outs stand apart in the source and are kept apart here.

Key:
human DP receptors [1] = biological target: T1, human DP receptors (Homo sapiens, UniProt Q13258); experiment: TCF/β-catenin-mediated luciferase reporter assay in HEK-DP cells; format: cell-based; conditions: for effect on DP receptor-mediated activation of TCF/β-catenin signaling / EC50 / Emax (fold), β-catenin/TCF-mediated luciferase activity / Emax: HEK-DP cells; for effect on DP receptor-mediated activation of TCF/β-catenin signaling: up to 100 nM; for EC50: 16 h treatment; for τ (TCF transcriptional activity), operational efficacy / Kd: Black/Leff operational model, partial agonists; for Kd: read-out: KA (TCF transcriptional activity), apparent affinity; for Emax (fold), β-catenin/TCF-mediated luciferase activity / Emax: 16 h; for Emax (fold), β-catenin/TCF-mediated luciferase activity: vehicle-treated control as 1.0; for Emax: read-out: Emax of TCF/β-catenin activity as % of the PGD2 value
T1 construct: expressed in transfected cells
T1 sequence (Q13258 1-359): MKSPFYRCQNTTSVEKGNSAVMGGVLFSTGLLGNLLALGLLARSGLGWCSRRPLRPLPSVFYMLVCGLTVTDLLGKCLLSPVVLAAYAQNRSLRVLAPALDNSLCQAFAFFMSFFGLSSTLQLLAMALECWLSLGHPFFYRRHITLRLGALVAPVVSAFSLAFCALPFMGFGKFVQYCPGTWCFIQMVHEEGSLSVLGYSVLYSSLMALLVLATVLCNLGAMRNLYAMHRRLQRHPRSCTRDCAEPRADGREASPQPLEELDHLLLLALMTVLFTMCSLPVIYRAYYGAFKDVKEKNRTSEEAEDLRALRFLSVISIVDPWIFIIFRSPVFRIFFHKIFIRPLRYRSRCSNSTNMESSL
Procedure: HEK-DP cells were cultured in 6-well plates and, prior to the experiments, medium was switched to Opti-MEM for 16 h with antibiotics, as stated previously. Cells were transiently transfected using HyliMax reagent (Dojindo) with 400 ng/well of either TOP flash or FOP flash reporter plasmids and 2 ng/well of pRL-CMV plasmid (Promega), as described previously ([20]). […] Cells were then lysed and assayed using a dual luciferase reporter assay system (Promega) according to the manufacturer's instructions with TECAN infinite M200 (TECAN). Data were normalized by calculating the ratios of firefly luciferase values to corresponding renilla luciferase scores and corrected for background activity by subtracting FOP flash scores from the corresponding TOP flash values, as described previously ([20]).
(§1) The equation "operational model-partial agonist" was performed using the results presented in Figure 2, as reported previously ([20]). The basal level was 0 (Fig. 2A; cAMP) or 1 (Fig. 2B, TCF), and Hill slopes were specified as 1. […] The total responses evoked by the precursor prostanoid and its metabolites were calculated using the formula below ([23]): Response=[A1]/KA1×Tau1+[A2]/KA2×Tau2/[A1]/KA1×(Tau1+1)+[A2]/KA2×(Tau2+1)+1×EffectMax

human DP receptors [2] = biological target: T1, human DP receptors; experiment: cAMP formation assay in HEK-DP cells; format: cell-based; conditions: for effect on DP receptors in terms of cAMP accumulation: at least up to 100 nM; for τ' (cAMP formation) / τ (cAMP formation), operational efficacy / Kd: Black/Leff operational model; for τ' (cAMP formation): full agonists, τ' = KA' x R; for Emax: 60 min, normalized to 100 nM PGD2-stimulated cAMP as 100%; for EC50: 60 min treatment; for τ (cAMP formation), operational efficacy / Kd: partial agonists; for Kd: read-out: KA (cAMP formation), apparent affinity
Procedure: HEK-DP cells were cultured in 6-well plates and, prior to the experiments, the medium was switched from DMEM to Opti-MEM (Thermo Fisher Scientific) containing 250 μg/ml geneticin, 200 μg/ml hygromycin B, and 100 μg/ml gentamicin for 16 h. […] Three hundred microliters of TE buffer (50 mM Tris–HCl, 4 mM EDTA [pH 7.5]) was added, and cells were scraped and transferred to microcentrifuge tubes. Samples were boiled for 8 min, placed on ice, and then centrifuged for 1 min at 16,000g. Between 5 and 25 μl of the supernatants representing approximately 10^4 cells was added to 50 μl of TE buffer containing [^3H]cAMP (PerkinElmer Life Science) and then to 100 μl of 0.06 mg/ml PKA (Sigma–Aldrich; #P5511). The mixture was vortexed and incubated on ice for 120 min. Samples were added to 100 μl of TE buffer containing 2% of bovine serum albumin and 26 mg/ml of powdered activated charcoal (Sigma–Aldrich; #C7606). After vortexing and centrifugation at 16,000g for 5 min, 200 μl of the supernatants were transferred to vials for liquid scintillation.
as §1

human DP receptors [3] = biological target: T1, human DP receptors; experiment: competitive whole-cell [^3H]PGD2 radioligand binding assay in HEK-DP cells; conditions: for binding to DP receptors / competition with [^3H]PGD2: at least to a concentration of 100 nM (data not shown)
Procedure: The medium of HEK-DP cells cultured in 10-cm dishes was switched from DMEM containing 10% fetal bovine serum to Opti-MEM at 37 °C for 16 h containing antibiotics, as stated previously. Cells were trypsinized and then resuspended at 1.0 x 10^6 cells/sample in 100 μl of ice-cold 10 mM HEPES buffer (pH 7.4) containing 1 mM EDTA and 10 mM MnCl2 (Sigma–Aldrich). […] Samples were incubated for 2 h at 4 °C, and then the assay was terminated by filtration through Whatman GF/C glass filters (Whatman). Filters were then washed three to five times with ice-cold HEPES buffer, and radioactivity was measured by liquid scintillation counting ([20]).

platelets = tested on: platelets; parameters: method as in PMID 17452035; conditions: collagen-induced platelet aggregation; cited from earlier work
[4] = cited from earlier work

Row | effect on DP receptor-mediated activation of TCF/β-catenin signaling (human DP receptors [1]) | effect on DP receptors in terms of cAMP accumulation (human DP receptors [2]; HEK-DP cells) | binding to DP receptors / competition with [^3H]PGD2 (human DP receptors [3]) | EC50 (human DP receptors [1]) | τ' (cAMP formation) (human DP receptors [2]) | Emax (human DP receptors [2]; HEK-DP cells) | EC50 (human DP receptors [2]; HEK-DP cells) | IC50 (human DP receptors [3]) | τ (TCF transcriptional activity), operational efficacy (human DP receptors [1]) | Kd (human DP receptors [1]) | Emax (fold), β-catenin/TCF-mediated luciferase activity (human DP receptors [1]) | Emax (human DP receptors [1]) | τ (cAMP formation), operational efficacy (human DP receptors [2]) | Kd (human DP receptors [2]) | Structure (SMILES) | further results
1 | – | – | – | ~0.08 nM and 0.0758 nM | 86.76 | 102 ± 20.2% | ~0.05 nM and 0.0513 nM | 5.11 nM | – | – | – | – | – | – | CCCCC[C@H](O)/C=C/[C@H]1C(=O)C=C[C@@H]1C/C=C\CCCC(=O)O [PGJ2, prostaglandin J2] | time-dependent cAMP formation compared with PGD2, with IBMX pretreatment (human DP receptors [2]; HEK-DP cells, 0.3 nM ligand, 0.1 mg/ml IBMX for 25 min): significantly more cAMP from 5 to 60 min compared with PGD2; time-dependent cAMP formation compared with PGD2, without IBMX pretreatment (human DP receptors [2]; HEK-DP cells, 0.3 nM ligand, no IBMX): significantly form more cAMP from 10 to 30 min compared with PGD2; potency of inhibiting platelet aggregation, times lower than that of PGD2 (platelets): 13 times
2 | – | – | – | ~0.08 nM and 0.0892 nM | 11.48 | 100% | ~0.3 nM and 0.301 nM | 2.48 nM | – | – | – | – | – | – | CCCCC[C@H](O)/C=C/[C@H]1C(=O)C[C@H](O)[C@@H]1C/C=C\CCCC(=O)O [PGD2, Prostaglandin D2] | half-life in blood ([4]; blood): 0.9 min; half-life in plasma ([4]; plasma): 30 min; half-life in blood ([4]; printed as blood): 30 min

The remaining lines, values behind:

Row | Structure (SMILES) | effect on DP receptor-mediated activation of TCF/β-catenin signaling (human DP receptors [1]) | effect on DP receptors in terms of cAMP accumulation (human DP receptors [2]; HEK-DP cells) | binding to DP receptors / competition with [^3H]PGD2 (human DP receptors [3]) | EC50 (human DP receptors [1]) | τ' (cAMP formation) (human DP receptors [2]) | Emax (human DP receptors [2]; HEK-DP cells) | EC50 (human DP receptors [2]; HEK-DP cells) | IC50 (human DP receptors [3]) | τ (TCF transcriptional activity), operational efficacy (human DP receptors [1]) | Kd (human DP receptors [1]) | Emax (fold), β-catenin/TCF-mediated luciferase activity (human DP receptors [1]) | Emax (human DP receptors [1]) | τ (cAMP formation), operational efficacy (human DP receptors [2]) | Kd (human DP receptors [2]) | further results
3 | CCCCC/C=C/C=C1/C(=O)C[C@H](O)[C@@H]1C/C=C\CCCC(=O)O [15-d-PGD2, 15-deoxy-Δ^12,14-PGD2] | little effect | little effects | could not bind to DP receptors | – | – | – | – | – | – | – | – | – | – | – | –
4 | CCCCC/C=C\C=C1\C(=O)C=C[C@@H]1C/C=C\CCCC(=O)O [15-d-PGJ2, 15-deoxy-Δ^12,14-PGJ2] | little effect | little effects | could not bind to DP receptors | – | – | – | – | – | – | – | – | – | – | – | –
5 | CCCCCC(O)CC=C1C(=O)C=CC1CC=CCCCC(=O)O (stereo not shown) [Δ^12-PGJ2] | – | – | – | 8.96 nM | – | ~67% | ~28.9 nM and 28.9 nM | – | 2.44 | 29.8 nM | 2.21 fold | ~70% | 4.08 | 117 nM | –
6 | CCCCCC(=O)CC[C@H]1C(=O)C[C@H](O)[C@@H]1C/C=C\CCCC(=O)O [DK-PGD2, 13,14-dihydro-15-keto PGD2] | – | – | – | 34.7 nM | – | ~14% | ~62.4 nM and 62.4 nM | – | 0.21 | 18.9 nM | about 1.28 fold | ~40% | 0.17 | 15 nM | –
